The values that follow are results of earlier work, collected in patent US7879371B2 (priority 2002, dated 2011).

The test system of data set [1] is A. tumefaciens str. A348 (pSM358) virE::lacZ.
The subject of data set [2] is A. tumefaciens vir genes, strain A348 (pSM243cd). The note with it: for vir gene induction efficiency versus corresponding phenolic acids: strain A348 (pSM243cd), only above 100 μM.
The subject of data set [3] is A. tumefaciens nopaline type strains T37 and C58.
The mark [4] stands for this setting: cultures of strains C58F and T37.

Like-named read-outs stand apart in the source and are kept apart here.

As for `COc1cc(C(C)=O)cc(OC)c1O[C@H]1O[C@@H](C)[C@@H](O)[C@@H](O)[C@@H]1O` [Acetosyringonyl beta-L-fucopyranoside], the vir-inducing activity result in data set [1] (13 synthetic beta-glycosides compared) is given as “most active monoglycoside tested”. Further, in data set [1] (even at high concentrations), the toxic effects result was “devoid of toxic effects”.
With `CCNC(=O)/C=C/c1cc(OC)c(O)c(OC)c1` [ethylsinapamide], the “vir gene induction efficiency versus corresponding phenolic acids” value in data set [2] is given as “more efficient than the corresponding phenolic acids”.
In the case of `COc1cc(C=CC(=O)O)cc(OC)c1O` (stereo in doubt) [sinapinic acid], the “growth of A. tumefaciens strains” value in data set [3] (setting [4]) is given as “inhibited growth”.
Take `COc1cc(C=O)cc(OC)c1O` [syringaldehyde]: the “growth of A. tumefaciens strains” value in data set [3] (setting [4]) is listed as “inhibited growth”.
With `CCNC(=O)/C=C/c1ccc(O)c(OC)c1` [ethylferulamide], in data set [2], the “vir gene induction efficiency versus corresponding phenolic acids” value is reported as “more efficient than the corresponding phenolic acids”.
As for `COc1cc(C(C)=O)cc(OC)c1O` [acetosyringone], the “growth of A. tumefaciens strains” value in data set [3] is reported as “inhibited the growth”.
Take `COc1cc(C=O)cc(OC)c1O[C@@H]1O[C@H](CO)[C@@H](O[C@H]2O[C@H](CO)[C@@H](O)[C@H](O)[C@H]2O)[C@H](O)[C@H]1O` [beta-maltoside of syringaldehyde]: the “vir-inducing activity versus free phenol” value in data set [1] (at high concentrations) is “higher activity than the free phenol”.
For the compound `CCNC(=O)c1cc(OC)c(O)c(OC)c1` [ethylsyringamide], in data set [2] (concentrations above 1 mM), the “vir gene induction activity versus acetosyringone” value is “higher activity than acetosyringone”.
